Each compound was assayed against T1, CRF1 receptors (Homo sapiens, UniProt P34998) (assay: CRF1 receptor radioligand binding assay ([125I]-oCRF competition, IMR-32 cell membranes)). Conditions: IMR-32 cell membranes, [125I]-oCRF 100 pM; read-out: Ki (CRF-1R).
T1 construct: endogenous in cells; host or cells: IMR-32 cells, transformed with 2.5 µM 5'-bromo-2'-deoxyuridine for 10 days; membrane preparation
T1 sequence (P34998 24-415): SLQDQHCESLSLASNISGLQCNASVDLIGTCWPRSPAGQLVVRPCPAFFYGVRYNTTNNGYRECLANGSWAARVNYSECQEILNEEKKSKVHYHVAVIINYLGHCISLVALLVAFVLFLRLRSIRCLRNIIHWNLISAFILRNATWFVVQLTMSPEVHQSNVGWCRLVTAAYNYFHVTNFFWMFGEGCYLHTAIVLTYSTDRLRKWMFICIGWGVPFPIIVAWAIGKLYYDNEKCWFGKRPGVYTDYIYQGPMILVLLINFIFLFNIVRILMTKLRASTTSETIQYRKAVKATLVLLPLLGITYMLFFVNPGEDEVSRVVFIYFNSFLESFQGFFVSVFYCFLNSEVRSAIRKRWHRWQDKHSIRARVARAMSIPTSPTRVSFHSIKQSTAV
Procedure: CRF1 receptor antagonists, by occupying the same receptors, blocks the accessibility of the receptors to CRF, a hypothalamic factor mediating body's responses to physiological and psychological stress. The following radioligand binding assay examines the ability of the antagonists to bind the CRF1 receptors by assessing their ability to compete with binding of CRF to the receptors in cell membrane.
Tissue culture and membrane preparation. IMR-32 cells were grown at 37° C. in 5% CO2 as a monolayer in medium consisting of MEM supplemented with 10% heat-inactivated fetal bovine serum, 0.1 mM nonessential amino acids, 1 mM sodium pyruvate and 2 mM L-glutamine. […] After transformation, cells were rinsed twice with phosphate-buffered saline, and incubated for 10–15 min. at 4° C. in homogenization buffer consisting of 50 mM Tris (pH 7.2), 10 mM MgCl2 and 2 mM EGTA. Cells were transferred from plates to polypropylene tubes (16×100 mm), homogenized and centrifuged at 32,000×g for 15 min. Pellets were resuspended by homogenization in buffer and centrifuged at 32,000×g for 15 min. Pellets were resuspended in homogenization buffer then stored at −80° C. until needed.
Radioligand binding assays. […] The assay buffer consisted of 50 mM Tris (pH 7.2), 10 mM MgCl2, 0.5% BSA, 0.005% Triton X-100, 10 μg/mL aprotinin and 10 μg/mL leupeptin. Assays were stopped by addition of ice-cold wash buffer (50 mM Tris, pH 7.4 and 0.2% BSA). Filtration over glass fiber filters (Whatman GF/B) previously soaked in 50 mM Tris, pH 7.2 and 1% BSA was carried out using a Brandel cell harvester. Filters were washed with 10 mL of ice-cold wash buffer. Non-specific binding was defined with 10 μM oCRF. IC50 values for oCRF and test compounds were calculated by nonlinear regression using a one-site binding curve (GraphPad Prism).
A Ki of less than 100 nM was found for `Cc1cc(C)c(-n2c3ncccc3n3c(CN(CC4CC4)CC(F)(F)C(F)(F)F)c(C(F)(F)F)nc23)c(C)c1` [Example 212, Cyclopropylmethyl-(2,2,3,3,3-pentafluoro-propyl)-[2-trifluoromethyl-8-(2,4,6-trimethyl-phenyl)-8H-1,3a,7,8-tetraaza-cylopenta[α]inden-3-ylmethyl]-amine] in this work. A Ki of less than 1000 nM was found for `CCCN(CC1CC1)C(=O)c1c(C)nc2n1CCN2c1c(C)cc(C)cc1C` [Example 1, 2-Methyl-7-(2,4,6-trimethyl-phenyl)-6,7-dihydro-5H-imidazo[1,2-α]imidazole-3-carboxylic acid cyclopropylmethyl-propyl-amide] in this work. A Ki of less than 10000 nM was found for `C=CCN(CC=C)C(=O)c1c(CC)nc2n1CCN2c1c(C)cc(C)cc1C` [Example 22, 2-Ethyl-7-(2,4,6-trimethyl-phenyl)-6,7-dihydro-5H-imidazo[1,2-a]imidazole-3-carboxylic acid diallylamide] in this work. A Ki of less than 10000 nM was found for `CCc1nc2n(c1C(=O)N(CCC(F)(F)F)Cc1cccc(F)c1)CCN2c1c(C)cc(C)cc1C` [Example 24, 2-Ethyl-7-(2,4,6-trimethyl-phenyl)-6,7-dihydro-5H-imidazo[1,2-a]imidazole-3-carboxylic acid (3-fluoro-benzyl)-(3,3,3-trifluoro-propyl)-amide] in this work. A Ki of less than 1000 nM was found for `CCN(CCC1CC1)Cc1c(C(F)(F)F)nc2n1CCCN2c1c(C)cc(C)cc1Cl` [Example 123, [8-(2-Chloro-4,6-dimethyl-phenyl)-2-trifluoromethyl-5,6,7,8-tetrahydro-imidazo[1,2-a]pyrimidin-3-ylmethyl]-(2-cyclopropyl-ethyl)-ethyl-amine] in this work. A Ki of less than 100 nM was found for `CCCN(CCc1ccccc1)Cc1c(C(F)(F)F)nc2n1CCCN2c1c(C)cc(C)cc1C` [Example 83, Phenethyl-propyl-[2-trifluoromethyl-8-(2,4,6-trimethyl-phenyl)-5,6,7,8-tetrahydro-imidazo[1,2-a]pyrimidin-3-ylmethyl]-amine] in this work. A Ki of less than 1000 nM was found for `CCCN(CCC1CC1)Cc1c(C(F)(F)F)nc2n1CCCN2c1c(C)cc(C)cc1C` [Example 87, (2-Cyclopropyl-ethyl)-propyl-[2-trifluoromethyl-8-(2,4,6-trimethyl-phenyl)-5,6,7,8-tetrahydro-imidazo[1,2-a]pyrimidin-3-ylmethyl]-amine] in this work. A Ki of less than 100 nM was found for `Cc1cc(C)c(-n2c3ccccc3n3c(CN(CC4CC4)CC4CC4)c(C(F)(F)F)nc23)c(C)c1` [Example 151, Bis-cyclopropylmethyl-[2-trifluoromethyl-8-(2,4,6-trimethyl-phenyl)-8H-1,3a,8-triaza-cyclopenta[α]inden-3-ylmethyl]-amine] in this work. A Ki of less than 1000 nM was found for `CC(C)c1ccc(-n2c3ccccc3n3c(CN(CC4CC4)CC(F)(F)C(F)(F)F)c(C(F)(F)F)nc23)c(Br)c1` [Example 191, [8-(2-Bromo-4-isopropyl-phenyl)-2-trifluoromethyl-8H-1,3a,8-triaza-cyclopenta[α]inden-3-ylmethyl]-cyclopropylmethyl-(2,2,3,3,3-pentafluoro-propyl)-amine] in this work. A Ki of less than 1000 nM was found for `C=CCN(CC=C)C(=O)c1c(CC)nc2n(-c3c(C)cc(C)cc3C)c(Cl)cn12` [Example 295, 6-Chloro-2-ethyl-7-(2,4,6-trimethylphenyl)-7H-imidazo[1,2-a]imidazole-3-carboxylic acid N,N-diallylamide] in this work. A Ki of less than 1000 nM was found for `CCc1nc2n(c1C(=O)N(CC)CCC1CC1)CCN2c1c(C)cc(C)cc1C` [Example 16, 2-Ethyl-7-(2,4,6-trimethyl-phenyl)-6,7-dihydro-5H-imidazo[1,2-a]imidazole-3-carboxylic acid (2-cyclopropyl-ethyl)-ethyl-amide] in this work. A Ki of less than 100 nM was found for `CCCN(Cc1c(CC)nc2n(-c3c(C)cc(C)cc3C)c3ccccc3n12)CC1CC1` [Example 147, Cyclopropylmethyl-[2-ethyl-8-(2,4,6-trimethyl-phenyl)-8H-1,3a,8-triaza-cyclopenta[a]inden-3-ylmethyl]-propyl-amine] in this work. A Ki of less than 100 nM was found for `CCc1nc2n(c1C(=O)N(CC)CC1CC1)CCN2c1c(C)cc(C)cc1C` [Example 10, 2-Ethyl-7-(2,4,6-trimethyl-phenyl)-6,7-dihydro-5H-imidazo[1,2-a]imidazole-3-carboxylic acid cyclopropylmethyl-(ethyl)-amide] in this work. A Ki of less than 1000 nM was found for `CCCN(CCC)Cc1c(C(F)(F)F)nc2n1CCCN2c1c(C)cc(C)cc1C` [Example 68, Dipropyl-[2-trifluoromethyl-8-(2,4,6-trimethyl-phenyl)-5,6,7,8-tetrahydro-imidazo[1,2-a]pyrimidin-3-ylmethyl]-amine] in this work. A Ki of less than 100 nM was found for `Cc1cc(C)c(-n2c3ccccc3n3c(CN(CC4CCC4)CC(F)(F)F)c(C(F)(F)F)nc23)c(C)c1` [Example 156, Cyclobutylmethyl-(2,2,2-trifluoro-ethyl)-[2-trifluoromethyl-8-(2,4,6-trimethyl-phenyl)-8H-1,3a,8-triaza-cyclopenta[α]inden-3-ylmethyl]-amine] in this work. A Ki of less than 1000 nM was found for `CCCN(Cc1ccc(F)cc1)Cc1c(C(F)(F)F)nc2n1CCCN2c1c(C)cc(C)cc1C` [Example 92, (4-Fluoro-benzyl)-propyl-[2-trifluoromethyl-8-(2,4,6-trimethyl-phenyl)-5,6,7,8-tetrahydro-imidazo[1,2-a]pyrimidin-3-ylmethyl]-amine] in this work. A Ki of less than 1000 nM was found for `Cc1cc(C)c(N2CCCn3c2nc(C(F)(F)F)c3CN(CCC2CC2)CCC(F)(F)F)c(Cl)c1` [Example 122, [8-(2-Chloro-4,6-dimethyl-phenyl)-2-trifluoromethyl-5,6,7,8-tetrahydro-imidazo[1,2-a]pyrimidin-3-ylmethyl]-(2-cyclopropyl-ethyl)-(3,3,3-trifluoro-propyl)-amine] in this work. A Ki of less than 100 nM was found for `CCCN(CC1CC1)C(=O)c1c(CC)nc2n1CCN2c1c(C)cc(C)cc1Cl` [Example 28, 7-(2-Chloro-4,6-dimethyl-phenyl)-2-ethyl-6,7-dihydro-5H-imidazo[1,2-a]imidazole-3-carboxylic acid cyclopropylmethyl-propyl-amide] in this work. A Ki of less than 100 nM was found for `Cc1cc(C)c(N2CCCn3c2nc(C(F)(F)F)c3CN(CCc2ccccc2)CC(F)(F)F)c(C)c1` [Example 82, Phenethyl-(2,2,2-trifluoro-ethyl)-[2-trifluoromethyl-8-(2,4,6-trimethyl-phenyl)-5,6,7,8-tetrahydro-imidazo[1,2-a]pyrimidin-3-ylmethyl]-amine] in this work. A Ki of less than 1000 nM was found for `CCCN(CCc1ccccc1)Cc1c(C(F)(F)F)nc2n(-c3ccc(C(C)C)cc3Br)c3ccccc3n12` [Example 193, [8-(2-Bromo-4-isopropyl-phenyl)-2-trifluoromethyl-8H-1,3a,8-triaza-cyclopenta[α]inden-3-ylmethyl]-phenethyl-propyl-amine] in this work. A Ki of less than 1000 nM was found for `CCCN(CCC1CC1)C(=O)c1c(CC)nc2n1CCN2c1c(C)cc(C)cc1C` [Example 20, 2-Ethyl-7-(2,4,6-trimethyl-phenyl)-6,7-dihydro-5H-imidazo[1,2-a]imidazole-3-carboxylic acid (2-cyclopropyl-ethyl)-propyl-amide] in this work. A Ki of less than 100 nM was found for `C=C(C)CN(CC)Cc1c(C(F)(F)F)nc2n(-c3c(C)cc(C)cc3C)c(Cl)cn12` [Example 312, [6-Chloro-2-trifluoromethyl-7-(2,4,6-trimethyl-phenyl)-7H-imidazo[1,2-a]imidazol-3-ylmethyl]-ethyl-(2-methyl-allyl)-amine] in this work.

Reference: patent US7125990B2, “Imidazolyl derivatives as corticotropin releasing factor inhibitors” (Bristol-Myers Squibb COmpany, priority 2001, dated 2006)
